# Patent US20250360160A1, “NEW MEDICAL USE OF TAFOXIPARIN” (DILAFOR AB, priority 2022, published 2025)
# Test system: term pregnant, nulliparous women with an unripe cervix
# Assay: Clinical phase II trial PPL17 (Parts A and B), subcutaneous tafoxiparin vs placebo
# Assay type: in vivo, human
# Settings: for Labor induced with PGE-1, percent of subjects: placebo 10.2%; for Fetal distress as indication for operative delivery (ODFD), percent of patients: placebo 22.7%; for Percent of patients with operative delivery / proportion of women needing instrumental delivery: placebo 45.5%; for Labor induced with oxytocin, percent of subjects / proportion of women reaching spontaneous onset of labor with uncomplicated delivery: placebo 54.5%; for Labor induced with amniotomy, percent of subjects: placebo 56.8%; for Labor induction with Balloon catheter, percent of subjects: placebo 58.0%; for Labor induced, percent of subjects: placebo 70.5%; for number of women needing instrumental delivery: spontaneous onset of labor; for proportion reaching partus by vaginal delivery with no need for instrumental delivery nor caesarian section: placebo 48%; for proportion reaching partus by vaginal delivery with no need for instrumental delivery nor caesarian section / proportion of women needing instrumental delivery or caesarian section to reach partus: FIG. 5; for proportion of women needing instrumental delivery or caesarian section to reach partus: placebo 52%; for proportion of women needing instrumental delivery: vaginal mode of partus, FIG. 4; for number of subjects (women) that reach spontaneous onset of labor / percent of subjects (women) that reach spontaneous onset of labor: n=37
# Experimental: A clinical phase II trial is performed as a randomized, double-blind, placebo-controlled, parallel-group proof of concept study (Part A) with a conditional dose finding follow up study (Part B) to evaluate the efficacy, safety, tolerability and dose response of subcutaneously administered tafoxiparin as a supplement to induction therapy in term pregnant, nulliparous women with an unripe cervix. The study is performed in Sweden and Finland (PPL17), and an EMA (European Medicines Agency) description of the study can be found on the EU Clinical Trials Register web (www.clinicaltrialsregister.eu/ctr-search/search?query=PPL17).
# A total of 170 term pregnant women are randomized to receive either 300 mg of tafoxiparin, or corresponding placebo (vehicle), administered subcutaneously every 24±3 hours and up to a total of 7 doses, or until partus (Part A).
# In the dose finding follow up study (Part B), a total of 164 term pregnant women are randomized to receive either 75 or 150 mg of tafoxiparin administered subcutaneously every 24±3 hours […] and up to a total of 7 doses, or until partus.
# To assess the efficacy of tafoxiparin on cervical ripening/cervical ripening rate, during and up to the first seven days of treatment, measured by Bishop score. All women must be examined to check the cervical state before enrollment.
# Time from start of treatment to increase in Bishop score of ≥2 points or spontaneous onset of labor, whichever comes first. Time from start of treatment to increase in Bishop score of ≥3 points or spontaneous onset of labor, whichever comes first. Time from start of treatment to increase in Bishop score of ≥4 points or spontaneous onset of labor, whichever comes first.
# Cervical ripening as measured by change from baseline to end of treatment in Bishop Score. Time from onset of labor to partus, where onset of labor is defined as last record of 4 cm cervical dilatation visualized in the partogram and progress of labor, or last record of 4 cm of cervical dilatation in combination with amniotomy and intravenous administration oxytocin.
# Proportion of women with spontaneous onset of labor (Response group I).
# Tafoxiparin/Placebo is supplied by Dilafor AB to the site as kits designed to constitute 300 mg of tafoxiparin or placebo for daily administration. Apart from the active substance, each ml of study drug will constitute 0.015 M phosphate buffer. The study medication kit for each patient will contain 8 doses consisting of 2 vials containing a minimum extractable volume of 1.6 ml of 150 mg/ml of tafoxiparin or placebo. One dose is a reserve dose in case a dose is rendered unusable. The investigational product should be administered subcutaneously every 24±3hours by the site staff for up to 7 doses, or until partus. At each dosing time 1.0 ml of the drug will be extracted from each of the 2 vials and injected as separate s.c. injections in the abdominal or hip region.
# Tafoxiparin/Placebo is supplied by Dilafor AB to the site as kits designed to constitute 75 or 150 mg of tafoxiparin for daily administration. Apart from the active substance, each ml of study drug will constitute 0.015 M phosphate buffer. The study medication kit for each patient will contain 8 doses consisting of 2 vials for each injection occasion containing a minimum extractable volume of 1.6 ml of 150 mg/ml of tafoxiparin or placebo. For subjects receiving 75 mg of tafoxiparin, one vial will contain active substance and one containing placebo. For subjects receiving 150 mg of tafoxiparin, both vials will contain active substance. One dose is a reserve dose in case a dose is rendered unusable. The investigational product should be administered subcutaneously every 24±3 hours by the site staff for up to 7 doses, or until partus. At each dosing time, 0.5 ml of the drug will be extracted from each of the 2 vials and injected as separate s.c. injections in the abdominal or hip region. […]
# [1] = 150 mg, n = 85, listed as tafoxiparin
# [2] = 150 mg, women with spontaneous onset of labor, of 36
# [3] = 300 mg, n = 91, listed as tafoxiparin
# [4] = 300 mg, women with spontaneous onset of labor, of 37
substance,measurement,setting,value
tafoxiparin,"Labor induced with PGE-1, percent of subjects",[1],8.2%
same,"Fetal distress as indication for operative delivery (ODFD), percent of patients","150 mg, n = 85",23.5%
same,Percent of patients with operative delivery,"150 mg, n = 85",48.2%
same,"Labor induced with oxytocin, percent of subjects","150 mg, n = 85",(44.7%)
same,"Labor induced with oxytocin, percent of subjects",[1],44.7%
same,"Labor induced with amniotomy, percent of subjects","150 mg, n = 85",(45.9%)
same,"Labor induced with amniotomy, percent of subjects",[1],45.9%
same,"Labor induction with Balloon catheter, percent of subjects","150 mg, n = 85",(43.5%)
same,"Labor induction with Balloon catheter, percent of subjects",[1],43.5%
same,"Labor induced, percent of subjects","150 mg, n = 85",(56.5%)
same,"Labor induced, percent of subjects",[1],56.5%
same,number of women reaching spontaneous onset of labor with uncomplicated delivery,"150 mg, of 32 women",23 women
same,proportion of women reaching spontaneous onset of labor with uncomplicated delivery,"150 mg, of 32 women",71.9%
same,number of women needing instrumental delivery or caesarian section to reach partus,"150 mg, of 36 women",13 women
same,number reaching partus by vaginal delivery with no need for instrumental delivery nor caesarian section,"150 mg, of 36 women",23 women
same,number of women achieving spontaneous onset of labor,"150 mg, of 85 women",36 women
same,number of women needing instrumental delivery,"150 mg, of 32 women",9 women
same,proportion reaching partus by vaginal delivery with no need for instrumental delivery nor caesarian section,[2],63.9%
same,proportion of women needing instrumental delivery or caesarian section to reach partus,[2],36.1%
same,proportion of women needing instrumental delivery,"150 mg, women with spontaneous onset of labor, of 32, p 0.422",28.1%
same,time point of spontaneous onset of labor (change of Bishop score),"300 mg and 150 mg vs 75 mg and placebo, FIG. 3",achieved spontaneous onset of labor at an earlier time point
same,proportion of women achieving spontaneous onset of labor,"300 mg daily s.c., of 90 women, p=0.089, placebo 28.7%, FIG. 1",41.1%
same,number of subjects (women) that reach spontaneous onset of labor,"300 mg, Study day 1",2
same,percent of subjects (women) that reach spontaneous onset of labor,"300 mg, Study day 1",(5%)
same,number of subjects (women) that reach spontaneous onset of labor,"300 mg, Study day 2",11
same,percent of subjects (women) that reach spontaneous onset of labor,"300 mg, Study day 2",(30%)
same,number of subjects (women) that reach spontaneous onset of labor,"300 mg, Study day 3",18
same,percent of subjects (women) that reach spontaneous onset of labor,"300 mg, Study day 3",(49%)
same,number of subjects (women) that reach spontaneous onset of labor,"300 mg, Study day 4",23
same,percent of subjects (women) that reach spontaneous onset of labor,"300 mg, Study day 4",(62%)
same,number of subjects (women) that reach spontaneous onset of labor,"300 mg, Study day 5",30
same,percent of subjects (women) that reach spontaneous onset of labor,"300 mg, Study day 5",(81%)
same,number of subjects (women) that reach spontaneous onset of labor,"300 mg, Study day 6",34
same,percent of subjects (women) that reach spontaneous onset of labor,"300 mg, Study day 6",(92%)
same,number of subjects (women) that reach spontaneous onset of labor,"300 mg, Study day 7",37
same,percent of subjects (women) that reach spontaneous onset of labor,"300 mg, Study day 7",(100%)
same,"Fetal distress as indication for operative delivery (ODFD), number of patients","300 mg, n = 91",11
same,"Labor induced with PGE-1, number of subjects","300 mg, n = 91",5
same,"Labor induced with amniotomy, number of subjects","300 mg, n = 91",50
same,"Labor induced with oxytocin, number of subjects","300 mg, n = 91",45
same,"Labor induction with Balloon catheter, number of subjects","300 mg, n = 91",42
same,"Labor induced, number of subjects","300 mg, n = 91, onset of labor with intervention",53
same,"Labor induced with PGE-1, percent of subjects","300 mg, n = 91",(5.5%)
same,"Labor induced with PGE-1, percent of subjects",[3],5.5%
same,"Fetal distress as indication for operative delivery (ODFD), percent of patients","300 mg, n = 91",12.1%
same,Percent of patients with operative delivery,"300 mg, n = 91",35.2%
same,"Labor induced with oxytocin, percent of subjects","300 mg, n = 91",(49.5%)
same,"Labor induced with oxytocin, percent of subjects",[3],49.5%
same,"Labor induced with amniotomy, percent of subjects","300 mg, n = 91",(54.9%)
same,"Labor induced with amniotomy, percent of subjects",[3],54.9%
same,"Labor induction with Balloon catheter, percent of subjects","300 mg, n = 91",(46.2%)
same,"Labor induction with Balloon catheter, percent of subjects",[3],46.2%
same,"Labor induced, percent of subjects","300 mg, n = 91",(58.2%)
same,"Labor induced, percent of subjects",[3],58.2%
same,number of women reaching spontaneous onset of labor with uncomplicated delivery,"300 mg, of 33 women",27 women
same,proportion of women reaching spontaneous onset of labor with uncomplicated delivery,"300 mg, of 33 women",81.8%
same,number of women needing instrumental delivery or caesarian section to reach partus,"300 mg, of 37 women",10 women
same,number reaching partus by vaginal delivery with no need for instrumental delivery nor caesarian section,"300 mg, of 37 women",27 women
same,number of women achieving spontaneous onset of labor,"300 mg, of 90 women",37 women
same,number of women needing instrumental delivery,"300 mg, of 33 women",6 women
same,proportion reaching partus by vaginal delivery with no need for instrumental delivery nor caesarian section,[4],73%
same,proportion of women needing instrumental delivery or caesarian section to reach partus,[4],27%
same,proportion of women needing instrumental delivery,"300 mg, women with spontaneous onset of labor, of 33, p=0.048",18.2%
same,achieving spontaneous onset of labor (conclusion),"all three doses 300 mg, 150 mg and 75 mg",effective for achieving spontaneous onset of labor
same,mode of partus (conclusion),"all three doses 300 mg, 150 mg and 75 mg, compared to placebo",effective for a person to reach partus by vaginal delivery and with less need for instrumental delivery or caesarian section
same,need for instrumental delivery (conclusion),"all three doses (300 mg, 150 mg and 75 mg), women with spontaneous onset of labor, vs placebo",effective in reducing the need for instrumental delivery
same,need for intervention to achieve onset of labor (conclusion),"all three doses, compared to placebo",reduced the need for intervention in order to achieve onset of labor
same,effect on cervical ripening,"doses 300 mg and 150 mg, FIG. 3",beneficial effect on cervical ripening
same,estimated cervical ripening rate measured by Bishop score,"first 7 days of treatment, all three doses (300 mg, 150 mg and 75 mg) compared to placebo, FIG. 6",higher
same,labor time up to vaginal delivery (partus),"women with spontaneous onset of labor, 300 mg (p=0.070), 150 mg (p 0.654), 75 mg (p 0.114) vs placebo, FIG. 2",shorter labor time up to vaginal delivery (partus) compared to placebo
